Reference: ChEMBL document CHEMBL1201861, “Genomics of Drug Sensitity in Cancer screening data, Wellcome Trust Sanger Institute”

What was measured:
Assay in all cases: cells
Assay type in all cases: functional, cell-based, Homo sapiens
LB373-MEL-D = settings: Homo sapiens, LB373-MEL-D
Description: SANGER: Inhibition of human LB373-MEL-D cell growth in a cell viability assay.

J-RT3-T3-5 = settings: Homo sapiens, J-RT3-T3-5
Description: SANGER: Inhibition of human J-RT3-T3-5 cell growth in a cell viability assay.

SNU-C2B = settings: Homo sapiens, SNU-C2B
Description: SANGER: Inhibition of human SNU-C2B cell growth in a cell viability assay.

KINGS-1 = settings: Homo sapiens, KINGS-1
Description: SANGER: Inhibition of human KINGS-1 cell growth in a cell viability assay.

MOLT-4 = settings: Homo sapiens, MOLT-4
Description: SANGER: Inhibition of human MOLT-4 cell growth in a cell viability assay.

EW-13 = settings: Homo sapiens, EW-13
Description: SANGER: Inhibition of human EW-13 cell growth in a cell viability assay.

NCI-H1770 = settings: Homo sapiens, NCI-H1770
Description: SANGER: Inhibition of human NCI-H1770 cell growth in a cell viability assay.

A101D = settings: Homo sapiens, A101D
Description: SANGER: Inhibition of human A101D cell growth in a cell viability assay.

A704 = settings: Homo sapiens, A704
Description: SANGER: Inhibition of human A704 cell growth in a cell viability assay.

SW 962 = settings: Homo sapiens, SW 962
Description: SANGER: Inhibition of human SW962 cell growth in a cell viability assay.

SK-NEP-1 = settings: Homo sapiens, SK-NEP-1
Description: SANGER: Inhibition of human SK-NEP-1 cell growth in a cell viability assay.

CTV-1 = settings: Homo sapiens, CTV-1
Description: SANGER: Inhibition of human CTV-1 cell growth in a cell viability assay.

MFM-223 = settings: Homo sapiens, MFM-223
Description: SANGER: Inhibition of human MFM-223 cell growth in a cell viability assay.

GT3TKB = settings: Homo sapiens, GT3TKB
Description: SANGER: Inhibition of human GT3TKB cell growth in a cell viability assay.

MHH-PREB-1 = settings: Homo sapiens, MHH-PREB-1
Description: SANGER: Inhibition of human MHH-PREB-1 cell growth in a cell viability assay.

D-392MG = settings: Homo sapiens, D-392MG
D-263MG = settings: Homo sapiens, D-263MG
Description: SANGER: Inhibition of human D-263MG cell growth in a cell viability assay.

HOP-62 = settings: Homo sapiens, HOP-62
Description: SANGER: Inhibition of human HOP-62 cell growth in a cell viability assay.

BT-474 = settings: Homo sapiens, BT-474
Description: SANGER: Inhibition of human BT-474 cell growth in a cell viability assay.

MLMA = settings: Homo sapiens, MLMA
Description: SANGER: Inhibition of human MLMA cell growth in a cell viability assay.

OCI-AML2 = settings: Homo sapiens, OCI-AML2
Description: SANGER: Inhibition of human OCI-AML2 cell growth in a cell viability assay.

EKVX = settings: Homo sapiens, EKVX
Description: SANGER: Inhibition of human EKVX cell growth in a cell viability assay.

IST-MES1 = settings: Homo sapiens, IST-MES1
Description: SANGER: Inhibition of human IST-MES1 cell growth in a cell viability assay.

OS-RC-2 = settings: Homo sapiens, OS-RC-2
Description: SANGER: Inhibition of human OS-RC-2 cell growth in a cell viability assay.

EW-1 = settings: Homo sapiens, EW-1
Description: SANGER: Inhibition of human EW-1 cell growth in a cell viability assay.

LAMA-84 = settings: Homo sapiens, LAMA-84
Description: SANGER: Inhibition of human LAMA-84 cell growth in a cell viability assay.

DMS-79 = settings: Homo sapiens, DMS-79
Description: SANGER: Inhibition of human DMS-79 cell growth in a cell viability assay.

CW-2 = settings: Homo sapiens, CW-2
Description: SANGER: Inhibition of human CW-2 cell growth in a cell viability assay.

PSN1 = settings: Homo sapiens, PSN1
Description: SANGER: Inhibition of human PSN1 cell growth in a cell viability assay.

EOL1 = settings: Homo sapiens, EOL1
Description: SANGER: Inhibition of human EoL-1-cell cell growth in a cell viability assay.

LXF-289 cell line = settings: Homo sapiens, LXF-289
Description: SANGER: Inhibition of human LXF-289 cell growth in a cell viability assay.

RPMI-8226 = settings: Homo sapiens, RPMI-8226
Description: SANGER: Inhibition of human RPMI-8226 cell growth in a cell viability assay.

KMOE-2 = settings: Homo sapiens, KMOE-2
Description: SANGER: Inhibition of human KMOE-2 cell growth in a cell viability assay.

KURAMOCHI = settings: Homo sapiens, KURAMOCHI
Description: SANGER: Inhibition of human KURAMOCHI cell growth in a cell viability assay.

NCI-H1355 = settings: Homo sapiens, NCI-H1355
Description: SANGER: Inhibition of human NCI-H1355 cell growth in a cell viability assay.

SW982 = settings: Homo sapiens, SW982
Description: SANGER: Inhibition of human SW982 cell growth in a cell viability assay.

BB65-RCC = settings: Homo sapiens, BB65-RCC
Description: SANGER: Inhibition of human BB65-RCC cell growth in a cell viability assay.

HT-144 = settings: Homo sapiens, HT-144
Description: SANGER: Inhibition of human HT-144 cell growth in a cell viability assay.

RKO = settings: Homo sapiens, RKO
Description: SANGER: Inhibition of human RKO cell growth in a cell viability assay.

KG-1 = settings: Homo sapiens, KG-1
Description: SANGER: Inhibition of human KG-1 cell growth in a cell viability assay.

SCC-15 = settings: Homo sapiens, SCC-15
Description: SANGER: Inhibition of human SCC-15 cell growth in a cell viability assay.

GI-ME-N = settings: Homo sapiens, GI-ME-N
Description: SANGER: Inhibition of human GI-ME-N cell growth in a cell viability assay.

DEL = settings: Homo sapiens, DEL
Description: SANGER: Inhibition of human DEL cell growth in a cell viability assay.

MS-1 = settings: Homo sapiens, MS-1
Description: SANGER: Inhibition of human MS-1 cell growth in a cell viability assay.

TE-6 = settings: Homo sapiens, TE-6
Description: SANGER: Inhibition of human TE-6 cell growth in a cell viability assay.

NB13 = settings: Homo sapiens, NB13
Description: SANGER: Inhibition of human NB13 cell growth in a cell viability assay.

SK-LMS-1 = settings: Homo sapiens, SK-LMS-1
Description: SANGER: Inhibition of human SK-LMS-1 cell growth in a cell viability assay.

QIMR-WIL = settings: Homo sapiens, QIMR-WIL
Description: SANGER: Inhibition of human QIMR-WIL cell growth in a cell viability assay.

Becker = settings: Homo sapiens, Becker
Description: SANGER: Inhibition of human Becker cell growth in a cell viability assay.

## Nc1cccc2c1CN(C1CCC(=O)NC1=O)C2=O (stereo not drawn) [LENALIDOMIDE]
LB373-MEL-D
  IC50: > 5 µM
J-RT3-T3-5
  IC50: > 5 µM
SNU-C2B
  IC50: > 5 µM
KINGS-1
  IC50: > 5 µM
MOLT-4
  IC50: > 5 µM
EW-13
  IC50: > 5 µM
NCI-H1770
  IC50: > 5 µM
A101D
  IC50: > 5 µM
A704
  IC50: > 5 µM
SW 962
  IC50: > 5 µM
SK-NEP-1
  IC50: > 5 µM
CTV-1
  IC50: > 5 µM
MFM-223
  IC50: > 5 µM
GT3TKB
  IC50: > 5 µM
MHH-PREB-1
  IC50: > 5 µM
D-392MG
  IC50: > 5 µM
D-263MG
  IC50: > 5 µM
HOP-62
  IC50: > 5 µM
BT-474
  IC50: > 5 µM
MLMA
  IC50: > 5 µM
OCI-AML2
  IC50: > 5 µM
EKVX
  IC50: > 5 µM
IST-MES1
  IC50: > 5 µM
OS-RC-2
  IC50: > 5 µM
EW-1
  IC50: > 5 µM
LAMA-84
  IC50: > 5 µM
DMS-79
  IC50: > 5 µM
CW-2
  IC50: > 5 µM
PSN1
  IC50: > 5 µM
EOL1
  IC50: 4.11 µM
LXF-289 cell line
  IC50: > 5 µM
RPMI-8226
  IC50: > 5 µM
KMOE-2
  IC50: > 5 µM
KURAMOCHI
  IC50: > 5 µM
NCI-H1355
  IC50: > 5 µM
SW982
  IC50: > 5 µM
BB65-RCC
  IC50: > 5 µM
HT-144
  IC50: > 5 µM
RKO
  IC50: > 5 µM
KG-1
  IC50: > 5 µM
SCC-15
  IC50: > 5 µM
GI-ME-N
  IC50: > 5 µM
DEL
  IC50: > 5 µM
MS-1
  IC50: > 5 µM
TE-6
  IC50: > 5 µM
NB13
  IC50: > 5 µM
SK-LMS-1
  IC50: > 5 µM
QIMR-WIL
  IC50: > 5 µM
Becker
  IC50: > 5 µM

## Cc1cn(-c2cc(NC(=O)c3ccc(C)c(Nc4nccc(-c5cccnc5)n4)c3)cc(C(F)(F)F)c2)cn1 [NILOTINIB]
LB373-MEL-D
  IC50: > 2 µM
J-RT3-T3-5
  IC50: > 2 µM
SNU-C2B
  IC50: > 2 µM
KINGS-1
  IC50: > 2 µM
MOLT-4
  IC50: > 2 µM
EW-13
  IC50: > 2 µM
NCI-H1770
  IC50: > 2 µM
A101D
  IC50: > 2 µM
A704
  IC50: > 2 µM
SW 962
  IC50: > 2 µM
SK-NEP-1
  IC50: > 2 µM
CTV-1
  IC50: > 2 µM
MFM-223
  IC50: > 2 µM
GT3TKB
  IC50: > 2 µM
MHH-PREB-1
  IC50: > 2 µM
D-392MG
  IC50: > 2 µM
D-263MG
  IC50: > 2 µM
HOP-62
  IC50: 1.82 µM
BT-474
  IC50: > 2 µM
MLMA
  IC50: > 2 µM
OCI-AML2
  IC50: > 2 µM
EKVX
  IC50: > 2 µM
IST-MES1
  IC50: > 2 µM
OS-RC-2
  IC50: > 2 µM
EW-1
  IC50: > 2 µM
LAMA-84
  IC50: 0.0049 µM
DMS-79
  IC50: > 2 µM
CW-2
  IC50: > 2 µM
PSN1
  IC50: > 2 µM
EOL1
  IC50: < 0.00781 µM
LXF-289 cell line
  IC50: > 2 µM
RPMI-8226
  IC50: > 2 µM
KMOE-2
  IC50: > 2 µM
KURAMOCHI
  IC50: > 2 µM
NCI-H1355
  IC50: > 2 µM
SW982
  IC50: > 2 µM
BB65-RCC
  IC50: > 2 µM
HT-144
  IC50: > 2 µM
RKO
  IC50: > 2 µM
KG-1
  IC50: > 2 µM
SCC-15
  IC50: > 2 µM
GI-ME-N
  IC50: > 2 µM
DEL
  IC50: > 2 µM
MS-1
  IC50: > 2 µM
TE-6
  IC50: > 2 µM
NB13
  IC50: > 2 µM
SK-LMS-1
  IC50: > 2 µM
QIMR-WIL
  IC50: > 2 µM
Becker
  IC50: > 2 µM
